Measured values published in US7417026B2, “Mobilization of hematopoietic cells” (Children's Hospital Medical Center, priority 2003, dated 2008).

Key:
WT HSC/P cells [1] = assay: Cell cycle analysis of HSC/P after SCF stimulation (cells in S+G2/M); type: cell-based, mice; details: 30 μM
Protocol: To further analyze the mechanism, by which Rac1 affects proliferation in primitive HSC/P cells, cell cycle analysis was performed after stimulation with 100 ng/ml SCF. […] In contrast, the number of Rac2−/− cells in S+G2/M phases was similar to WT cells. The delay in entry into S phase was significant by 24 hours after SCF addition and persisted at 48 hours. This defect in cell cycle progression appeared directly related to Rac1 deficiency, since expression of Rac1 protein using retrovirus-mediated gene transfer restored cycle progression in Rac1−/− cells [33+4 vs. 19+3 vs. 34+3; % cells in S+G2/M, WT vs. Rac1−/− vs. Rac1−/− (Rac1+), p<0.01 Rac1−/− vs. Rac1−/− (Rac1+)].

p42/p44 = details: neutrophils, 10 μM
Source text: (§2) It was next determined whether, in a manner similar to HSC/P, p42/p44 MAPKs were regulated via Rac proteins in neutrophils.

WT neutrophils [2] = details: 10 μM
Protocol: Neutrophil chemotaxis in response to 10 μM formyl-methionyl-leucyl-phenylalanine (fMLP) was examined in Boyden chamber assays.

WT neutrophils [3] = details: 10 μM; remark: listed apart in the source
Source text: as §2

ERK = details: HSC/P cells, 30 μM
WT neutrophils [4] = details: 10 μM; remark: listed apart in the source
Source text: as §2

WT HSC/P cells [5] = assay: Apoptosis of HSC/P following SCF stimulation (Annexin-V); type: cell-based, mice; details: concentration not given
Source text: By contrast, Rac2 appears to play no role in proliferation but regulated cell survival through the known anti-apoptotic protein Akt (Kennedy, et al. Genes Dev. 11, 701-13, 1997). Rac2 but not Rac1 deficiency was associated with increased frequency of both early (Annexin-V+) and late (Annexin V+/7AAD+) apoptotic cells (FIG. 2F) and expression of the Rac2 cDNA in Rac2−/− HSC/P led to a complete reversal of the apoptotic phenotype [4.4+0.8 vs. 6.6+1.3, vs. 3.1+0.7; % Annexin-V+ cells, WT vs. Rac2−/− vs. Rac−/− (Rac2+); p<0.01 Rac2−/− vs. Rac2−/− (Rac2+)]. Loss of both Rac1 and Rac2 activities was associated with a more severe apoptotic phenotype compared with deficiency of only Rac2 GTPase activity (FIG. 2D). […] The reduced Akt activation was close to normal in Rac1−/− cells.

HSC/progenitor cells [6] = assay: Mobilization of progenitor cells into peripheral blood, Rac2-/- mice; type: in vivo; details: intraperitoneal injection, three doses
Protocol: In FIG. 5, NSC23776 or PBS as a control was administered by intraperitoneal injection to normal mice and mice with a genetic deficiency of Rac2 (Rac2−/− mice). At the indicated time points after injection, mice were bled and analyzed for the number of progenitor cells in the peripheral blood. Three doses of drug were administered. Each point represents samples from 6 mice, mean +/− SEM. For information on how to make and use NSC23776 and other small molecule inhibitors, see copending U.S. Provisional application 60/523,599, filed Nov. 20, 2003.

HSC/progenitor cells [7] = assay: Mobilization of progenitor cells into peripheral blood, normal mice; type: in vivo; details: intraperitoneal injection, three doses
Protocol: In FIG. 4, NSC23776, an inhibitor of GEF interaction with Rac proteins, or PBS as a control was administered by intraperitoneal injection to normal mice. At the indicated time points after injection, mice were bled and analyzed for the number of progenitor cells in the peripheral blood. Three doses of drug were administered. Each point represents samples from 6 mice, mean +/− SEM.

RhoA-F30L [8] = target: T1, RhoA-F30L (Homo sapiens, UniProt P61586, F30L); assay: Downregulation of RhoA-F30L biochemical activity by retrovirally expressed RhoGAP chimera; type: cell-based; details: for biochemical activity of F30LRhoA: high copy number retroviral vector SF91-EMCV-IRES-GFP
T1 construct: expressed in transfected cells
T1 sequence (P61586 whole entry F30L): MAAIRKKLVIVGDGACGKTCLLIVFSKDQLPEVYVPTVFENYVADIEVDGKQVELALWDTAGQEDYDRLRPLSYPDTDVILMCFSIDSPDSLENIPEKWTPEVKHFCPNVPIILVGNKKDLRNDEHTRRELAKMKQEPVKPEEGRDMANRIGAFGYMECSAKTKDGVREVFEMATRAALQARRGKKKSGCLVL
Source text: (§1) Like other cases of retrovirus-based gene transfer approach, the copy number of the introduced RhoGAP-Rho chimeras in the host cells will likely to be important for the efficacy of their application.

RhoA-F30L [9] = target: T1, RhoA-F30L; assay: RhoA-F30L-induced transformation; type: cell-based; details: for RhoA-F30L-induced transformation: high copy number retroviral vector SF91-EMCV-IRES-GFP
Source text: as §1

In the case of `N#CC(=C(/N)Sc1ccccc1N)/C(C#N)=C(\N)Sc1ccccc1N` [U0126], the “number of cells in S+G2/M” value (WT HSC/P cells [1]) is reported as “significant reduction”, the “phosphorylation of p42/p44” value (p42/p44) is reported as “abrogates” and the cell migration (WT neutrophils [2]) is reported as “significant decrease”. The “percentage of NBT+ cells” value (WT neutrophils [3]) was “no change”, the ERK activation (ERK) was “inhibited” and the cortical actin formation (WT neutrophils [4]) was “impaired cortical actin formation”. For the same molecule, the increase in apoptosis (WT HSC/P cells [5]) was “An increase in apoptosis was not seen”.

In the case of `CCN(CC)CCCC(C)Nc1nc(C)cc(Nc2ccc3nc(C)cc(N)c3c2)n1` (stereo not drawn) [NSC23776], the “mobilization of HSC/progenitor cells” value (HSC/progenitor cells [6]) is reported as “additive effect” and the “mobilization of HSC/progenitor cells” value (HSC/progenitor cells [7]) is reported as “does indeed lead to mobilization”.

For “p190: GAP-containing protein fraction of human p190, the predominant GAP for RhoA, expressed alone”, the “biochemical activity of F30LRhoA” value (RhoA-F30L [8]) was “did not affect” and the RhoA-F30L-induced transformation (RhoA-F30L [9]) was “did not affect”.

B1: p190-RhoA-C: p190GAP fused with the RhoA C-terminal sequence, expressed from a retroviral vector (protein)
chain: VPLTTVVTPEKPIPIFIERCIEYIEATGLSTEGIYRVSGNKSEMESLQRQFDQDHNLDLAEKDFTVNTVAGAMKSFFSELPDPLVPYSMQIDLVEAHKINDREQKLHALKEVLKKFPKENHEVFKYVISHLNRVSHNNKVNLMTSENLSICFWPTLMRPDFSSMDALTATRSYQTIIELFIQQCPFFFYNRPISEPPGAALAPLQPWHPLSPSSPLHLLPVSHHLPSHLLQPLSPQCSHCSPLSSKPNTRCEPPQPRKQENQLSSLQARRGKKKSGCLVL
modifications: chimeric fusion peptide/p190RhoGAP plus c-terminus tail section of the targeted GTPase
With B1 the “biochemical activity of RhoA-F30L” value (RhoA-F30L [8]; expression with MIEG3) was “insufficient”, the “biochemical activity of F30LRhoA” value (RhoA-F30L [8]) was “specifically decrease” and the “transforming activity of RhoA-F30L” value (RhoA-F30L [9]; expression with MIEG3) was “insufficient”. The RhoA-F30L-induced transformation (RhoA-F30L [9]) was “specifically decrease”.
